{
  "source": "paper PMC5218480",
  "about": "(PLoS ONE, 2017)",
  "test_system": "MV-4-11 cells",
  "experiment": "Gene expression microarray analysis (Affymetrix PrimeView) and GSEA",
  "assay_type": "cell-based, human",
  "set-up": "RFU PODN (11730768_x_at) / Fold change /veh PODN (11730768_x_at) / RFU LINC00158 (11744669_a_at) / Fold change /veh LINC00158 (11744669_a_at) / RFU DUSP10 (11751237_a_at) / Fold change /veh DUSP10 (11751237_a_at) / RFU ID3 (11757404_x_at) / Fold change /veh ID3 (11757404_x_at) / RFU PLEKHG5 (11737974_s_at) / Fold change /veh PLEKHG5 (11737974_s_at) / RFU LRRC4B (11730491_at) / Fold change /veh LRRC4B (11730491_at) / RFU GIMAP4 (11747438_a_at) / Fold change /veh GIMAP4 (11747438_a_at) / RFU KRT8 (11758183_x_at) / Fold change /veh KRT8 (11758183_x_at) / RFU CNN1 (11734310_a_at) / Fold change /veh CNN1 (11734310_a_at) / RFU VPS37D (11726825_at) / Fold change /veh VPS37D (11726825_at) / RFU C10orf10 (11716522_x_at) / Fold change /veh C10orf10 (11716522_x_at) / RFU KIR2DL2 /// KIR2DL4 /// KIR2DL5A /// KIR2DL5B /// KIR2DS1 /// KIR2DS2 /// KIR2DS3 /// KIR2DS4 /// KIR3DL3 /// KIR3DL3 /// KIR3DS1 (11738374_at) / Fold change /veh KIR2DL2 /// KIR2DL4 /// KIR2DL5A /// KIR2DL5B /// KIR2DS1 /// KIR2DS2 /// KIR2DS3 /// KIR2DS4 /// KIR3DL3 /// KIR3DL3 /// KIR3DS1 (11738374_at) / RFU C1QL1 (11718748_at) / Fold change /veh C1QL1 (11718748_at) / RFU TMPRSS4 (11747572_a_at) / Fold change /veh TMPRSS4 (11747572_a_at) / RFU HAMP (11756126_x_at) / Fold change /veh HAMP (11756126_x_at) / RFU RNFT2 (11725882_a_at) / Fold change /veh RNFT2 (11725882_a_at) / RFU NR4A2 (11747474_a_at) / Fold change /veh NR4A2 (11747474_a_at) / RFU ABCC12 (11746883_a_at) / Fold change /veh ABCC12 (11746883_a_at) / RFU TMEM136 (11760407_x_at) / Fold change /veh TMEM136 (11760407_x_at) / RFU CLDN22 /// WWC2 (11732394_at) / Fold change /veh CLDN22 /// WWC2 (11732394_at) / RFU HLA-DPB1 (11760878_x_at) / Fold change /veh HLA-DPB1 (11760878_x_at) / RFU SPINT1 (11716480_a_at) / Fold change /veh SPINT1 (11716480_a_at) / RFU GAP43 (11754022_s_at) / Fold change /veh GAP43 (11754022_s_at) / RFU A4GNT (11735810_at) / Fold change /veh A4GNT (11735810_at) / RFU PRB3 (11715151_x_at) / Fold change /veh PRB3 (11715151_x_at) / RFU TUBB4B (11761932_at) / Fold change /veh TUBB4B (11761932_at) / RFU CAPN14 (11732068_a_at) / Fold change /veh CAPN14 (11732068_a_at) / RFU TMCC2 (11721928_a_at) / Fold change /veh TMCC2 (11721928_a_at) / RFU IRGQ (11745062_a_at) / Fold change /veh IRGQ (11745062_a_at) / RFU FAM174B (11720279_a_at) / Fold change /veh FAM174B (11720279_a_at) / RFU TMPRSS4 (11748680_a_at) / Fold change /veh TMPRSS4 (11748680_a_at) / RFU FAM212B (11763350_a_at) / Fold change /veh FAM212B (11763350_a_at) / RFU PLEKHG5 (11743358_a_at) / Fold change /veh PLEKHG5 (11743358_a_at) / RFU ZSCAN30 (11745921_a_at) / Fold change /veh ZSCAN30 (11745921_a_at) / RFU CMKLR1 (11741424_a_at) / Fold change /veh CMKLR1 (11741424_a_at) / RFU LOC101060620 /// MAPK8IP1 (11723275_at) / Fold change /veh LOC101060620 /// MAPK8IP1 (11723275_at) / RFU SPTSSB (11747773_x_at) / Fold change /veh SPTSSB (11747773_x_at) / RFU PRSS12 (11739890_at) / Fold change /veh PRSS12 (11739890_at) / RFU BIN1 (11741810_x_at) / Fold change /veh BIN1 (11741810_x_at) / RFU WNT11 (11732464_a_at) / Fold change /veh WNT11 (11732464_a_at) / RFU C10orf10 (11716521_a_at) / Fold change /veh C10orf10 (11716521_a_at) / RFU C5orf56 (11738089_at) / Fold change /veh C5orf56 (11738089_at) / RFU CYB561 (11721691_x_at) / Fold change /veh CYB561 (11721691_x_at) / RFU ANKRD19P (11752326_a_at) / Fold change /veh ANKRD19P (11752326_a_at) / RFU OR2T12 /// OR2T33 /// OR2T8 (11738714_s_at) / Fold change /veh OR2T12 /// OR2T33 /// OR2T8 (11738714_s_at) / RFU VCAN (11748164_a_at) / Fold change /veh VCAN (11748164_a_at) / RFU JSRP1 (11732532_at) / Fold change /veh JSRP1 (11732532_at) / RFU KRTAP10-11 (11738290_x_at) / Fold change /veh KRTAP10-11 (11738290_x_at) / RFU MYO3A (11730013_a_at) / Fold change /veh MYO3A (11730013_a_at) / RFU EBF3 (11725865_a_at) / Fold change /veh EBF3 (11725865_a_at) / RFU CAMK2N1 (11719241_x_at) / Fold change /veh CAMK2N1 (11719241_x_at) / RFU C5orf56 (11738088_a_at) / Fold change /veh C5orf56 (11738088_a_at) / RFU OLFML3 (11715873_a_at) / Fold change /veh OLFML3 (11715873_a_at) / RFU LOC100653217 /// NTM (11731650_a_at) / Fold change /veh LOC100653217 /// NTM (11731650_a_at) / RFU MAPK11 (11762145_a_at) / Fold change /veh MAPK11 (11762145_a_at) / RFU FIZ1 (11724087_x_at) / Fold change /veh FIZ1 (11724087_x_at) / RFU OASL (11726364_x_at) / Fold change /veh OASL (11726364_x_at) / RFU SOX15 (11748057_x_at) / Fold change /veh SOX15 (11748057_x_at) / RFU CD79A (11719716_a_at) / Fold change /veh CD79A (11719716_a_at) / RFU HIST1H1D (11736915_at) / Fold change /veh HIST1H1D (11736915_at) / RFU CASKIN2 (11723855_a_at) / Fold change /veh CASKIN2 (11723855_a_at) / RFU LOC730098 (11760151_x_at) / Fold change /veh LOC730098 (11760151_x_at) / RFU OR4N2 (11742367_at) / Fold change /veh OR4N2 (11742367_at) / RFU PRRT2 (11749266_a_at) / Fold change /veh PRRT2 (11749266_a_at) / RFU SNX32 (11753110_a_at) / Fold change /veh SNX32 (11753110_a_at) / RFU CDHR5 (11726645_a_at) / Fold change /veh CDHR5 (11726645_a_at) / RFU RCAN1 (11760418_a_at) / Fold change /veh RCAN1 (11760418_a_at) / RFU FAM167A (11723789_a_at) / Fold change /veh FAM167A (11723789_a_at) / RFU FAM26E (11764081_at) / Fold change /veh FAM26E (11764081_at) / RFU ISYNA1 (11749810_s_at) / Fold change /veh ISYNA1 (11749810_s_at) / RFU ACY1 (11761880_at) / Fold change /veh ACY1 (11761880_at) / RFU 11764098_at / Fold change /veh 11764098_at / RFU SAMD14 (11745864_x_at) / Fold change /veh SAMD14 (11745864_x_at) / RFU NPB (11741838_a_at) / Fold change /veh NPB (11741838_a_at) / RFU TMPRSS6 (11731388_a_at) / Fold change /veh TMPRSS6 (11731388_a_at) / RFU KRTAP10-2 (11738614_at) / Fold change /veh KRTAP10-2 (11738614_at) / RFU ARHGAP8 /// PRR5-ARHGAP8 (11727945_x_at) / Fold change /veh ARHGAP8 /// PRR5-ARHGAP8 (11727945_x_at) / RFU KRTAP5-7 /// NADSYN1 (11734609_at) / Fold change /veh KRTAP5-7 /// NADSYN1 (11734609_at) / RFU RASL12 (11751679_a_at) / Fold change /veh RASL12 (11751679_a_at) / RFU CDKN2B (11736163_a_at) / Fold change /veh CDKN2B (11736163_a_at) / RFU PRF1 (11729649_at) / Fold change /veh PRF1 (11729649_at) / RFU, ZNF638 /// ZNF638-IT1 / Fold change vs veh, ZNF638 /// ZNF638-IT1 / RFU, PANK3 / Fold change vs veh, PANK3 / RFU, SH3YL1 / Fold change vs veh, SH3YL1 / RFU, ZEB2 / Fold change vs veh, ZEB2 / RFU, NRIP1 / Fold change vs veh, NRIP1 / RFU, PTTG1IP / Fold change vs veh, PTTG1IP / RFU, CAPN2 / Fold change vs veh, CAPN2 / RFU, MED14 / Fold change vs veh, MED14 / RFU, SNORA58 / Fold change vs veh, SNORA58 / RFU, C1orf63 / Fold change vs veh, C1orf63 / RFU, LRRFIP1 / Fold change vs veh, LRRFIP1 / RFU, NDUFAF7 / Fold change vs veh, NDUFAF7 / RFU, SLC12A2 / Fold change vs veh, SLC12A2 / RFU, IBTK / Fold change vs veh, IBTK / RFU, ESF1 / Fold change vs veh, ESF1 / Fold change vs veh, TMEM50B / RFU, TAOK1 / Fold change vs veh, TAOK1 / RFU, ACBD3 / Fold change vs veh, ACBD3 / RFU, TMA16 / Fold change vs veh, TMA16 / RFU, RWDD3 / Fold change vs veh, RWDD3 / RFU, BCAT1 / Fold change vs veh, BCAT1 / RFU, EDEM3 / Fold change vs veh, EDEM3 / RFU, TMEM33 / Fold change vs veh, TMEM33 / RFU, WDR75 / Fold change vs veh, WDR75 / RFU, AHCTF1 / Fold change vs veh, AHCTF1 / RFU, TFRC / Fold change vs veh, TFRC / RFU, ZDHHC17 / Fold change vs veh, ZDHHC17 / RFU, NOM1 / Fold change vs veh, NOM1 / RFU, ARL8B / Fold change vs veh, ARL8B / RFU, ZBTB11 / Fold change vs veh, ZBTB11 / RFU, TAMM41 / Fold change vs veh, TAMM41 / RFU, KIAA1704 /// LOC100996395 / Fold change vs veh, KIAA1704 /// LOC100996395 / RFU, ING1 / Fold change vs veh, ING1 / RFU, TRMT61B / Fold change vs veh, TRMT61B / RFU, FUBP3 / Fold change vs veh, FUBP3 / RFU, TP53 / Fold change vs veh, TP53 / RFU, TNKS2 / Fold change vs veh, TNKS2 / RFU, ZFP14 / Fold change vs veh, ZFP14 / RFU, ACTR2 / Fold change vs veh, ACTR2 / RFU, PPP3R1 / Fold change vs veh, PPP3R1 / RFU, PIK3R1 / Fold change vs veh, PIK3R1 / RFU, HNRNPA1 / Fold change vs veh, HNRNPA1 / RFU, RNF170 / Fold change vs veh, RNF170 / RFU, ZNF28 / Fold change vs veh, ZNF28 / RFU, RNGTT / Fold change vs veh, RNGTT / RFU, OGT / Fold change vs veh, OGT / RFU, BRD1 / Fold change vs veh, BRD1 / RFU, MARS / Fold change vs veh, MARS / RFU, ZNF655 / Fold change vs veh, ZNF655 / RFU, FAHD1 / Fold change vs veh, FAHD1 / RFU, BDP1 / Fold change vs veh, BDP1 / RFU, LRRCC1 / Fold change vs veh, LRRCC1 / RFU, ARID1A / Fold change vs veh, ARID1A / RFU, ZNF146 / Fold change vs veh, ZNF146 / RFU, ZNF330 / Fold change vs veh, ZNF330 / RFU, GPN3 / Fold change vs veh, GPN3 / RFU, C9orf123 / Fold change vs veh, C9orf123 / RFU, N4BP2L2 / Fold change vs veh, N4BP2L2 / RFU, ARFIP1 / Fold change vs veh, ARFIP1 / RFU, FAM179B / Fold change vs veh, FAM179B / RFU, BCL10 / Fold change vs veh, BCL10 / RFU, UHRF1BP1L / Fold change vs veh, UHRF1BP1L / RFU, BET1 / Fold change vs veh, BET1 / RFU, CNOT2 / Fold change vs veh, CNOT2 / RFU, ZNF268 / Fold change vs veh, ZNF268 / Fold change vs veh, ZNF507 / RFU, DGCR2 / Fold change vs veh, DGCR2 / RFU, WDSUB1 / Fold change vs veh, WDSUB1 / Fold change vs veh, HSP90B1 /// MIR3652 / RFU, ADSS / Fold change vs veh, ADSS / RFU, GK / Fold change vs veh, GK / RFU, ZNF148 / Fold change vs veh, ZNF148 / RFU, TAF9 / Fold change vs veh, TAF9 / RFU, SLC1A5 / Fold change vs veh, SLC1A5 / RFU, SLMO2 / Fold change vs veh, SLMO2 / RFU, ABCC4 / Fold change vs veh, ABCC4 / RFU, LOC101060439 /// RAP1B / Fold change vs veh, LOC101060439 /// RAP1B / RFU, RFX7 / Fold change vs veh, RFX7 / RFU, GTPBP10 / Fold change vs veh, GTPBP10 / RFU, CNEP1R1 / Fold change vs veh, CNEP1R1 / RFU, BIVM-ERCC5 /// ERCC5 / Fold change vs veh, BIVM-ERCC5 /// ERCC5 / RFU, ILF3 / Fold change vs veh, ILF3 / RFU 11762660_at / Fold change /veh 11762660_at / RFU VCAN (11757783_s_at) / Fold change /veh VCAN (11757783_s_at) / RFU DDX43 (11728927_at) / Fold change /veh DDX43 (11728927_at) / RFU KRT8 (11758188_x_at) / Fold change /veh KRT8 (11758188_x_at) / RFU NKD1 (11759106_at) / Fold change /veh NKD1 (11759106_at) / RFU SRD5A1 (11742802_a_at) / Fold change /veh SRD5A1 (11742802_a_at) / RFU TPSAB1 /// TPSB2 (11721975_s_at) / Fold change /veh TPSAB1 /// TPSB2 (11721975_s_at) / RFU GSTM3 (11746129_a_at) / Fold change /veh GSTM3 (11746129_a_at) / RFU IL23R (11737362_x_at) / Fold change /veh IL23R (11737362_x_at) / RFU TMEM51 (11727254_a_at) / Fold change /veh TMEM51 (11727254_a_at) / RFU PIWIL2 (11732686_x_at) / Fold change /veh PIWIL2 (11732686_x_at) / RFU ORM1 (11744905_x_at) / Fold change /veh ORM1 (11744905_x_at) / RFU CCDC152 (11743942_at) / Fold change /veh CCDC152 (11743942_at) / RFU ECM1 (11717891_a_at) / Fold change /veh ECM1 (11717891_a_at) / RFU IL23R (11748794_a_at) / Fold change /veh IL23R (11748794_a_at) / RFU TNFAIP8L3 (11732012_x_at) / Fold change /veh TNFAIP8L3 (11732012_x_at) / RFU MBOAT4 (11741988_at) / Fold change /veh MBOAT4 (11741988_at) / RFU 11764193_at / Fold change /veh 11764193_at / RFU TMEM53 (11763286_at) / Fold change /veh TMEM53 (11763286_at) / RFU MAGEB2 (11727129_at) / Fold change /veh MAGEB2 (11727129_at) / RFU TMEM200A (11744735_a_at) / Fold change /veh TMEM200A (11744735_a_at) / RFU CCDC152 (11751479_a_at) / Fold change /veh CCDC152 (11751479_a_at) / RFU FAM211A (11726209_a_at) / Fold change /veh FAM211A (11726209_a_at) / RFU RGS16 (11746705_a_at) / Fold change /veh RGS16 (11746705_a_at) / RFU VCAN (11755009_s_at) / Fold change /veh VCAN (11755009_s_at) / RFU RHOB (11743442_s_at) / Fold change /veh RHOB (11743442_s_at) / RFU RGS16 (11720943_a_at) / Fold change /veh RGS16 (11720943_a_at) / RFU RGS16 (11720944_at) / Fold change /veh RGS16 (11720944_at) / RFU, VPS4B / Fold change vs veh, VPS4B / RFU, CREB1 / Fold change vs veh, CREB1 / RFU, DNAJC13 / Fold change vs veh, DNAJC13 / RFU, GNAQ / Fold change vs veh, GNAQ / RFU, CDK5R1 / Fold change vs veh, CDK5R1 / RFU, ZRANB3 / Fold change vs veh, ZRANB3 / RFU, CUL4A / Fold change vs veh, CUL4A / RFU, CCNY / Fold change vs veh, CCNY / RFU, UFL1 / Fold change vs veh, UFL1 / RFU, COG3 / Fold change vs veh, COG3 / RFU, DIAPH2 / Fold change vs veh, DIAPH2 / RFU, SKA2 / Fold change vs veh, SKA2 / RFU, AFF3 / Fold change vs veh, AFF3 / RFU, LMF1 / Fold change vs veh, LMF1 / RFU, IPO11 / Fold change vs veh, IPO11 / RFU, DFFB / Fold change vs veh, DFFB / RFU, FOXP1 / Fold change vs veh, FOXP1 / RFU, CARD8 / Fold change vs veh, CARD8 / RFU, STRN3 / Fold change vs veh, STRN3 / RFU, ADK / Fold change vs veh, ADK / RFU, RASSF2 / Fold change vs veh, RASSF2 / RFU, WIPF1 / Fold change vs veh, WIPF1 / RFU, LARP1B / Fold change vs veh, LARP1B / RFU, RASA1 / Fold change vs veh, RASA1 / RFU, RB1 / Fold change vs veh, RB1 / RFU, PPFIA1 / Fold change vs veh, PPFIA1 / RFU, MAT2A / Fold change vs veh, MAT2A / RFU, CCT5 / Fold change vs veh, CCT5 / RFU, WDR92 / Fold change vs veh, WDR92 / RFU, CUX1 / Fold change vs veh, CUX1 / RFU, TTC7A / Fold change vs veh, TTC7A / RFU, TMEM135 / Fold change vs veh, TMEM135 / RFU, DEPTOR / Fold change vs veh, DEPTOR / RFU, CPM / Fold change vs veh, CPM / RFU, DNAJB6 / Fold change vs veh, DNAJB6 / RFU, CACNA2D3 / Fold change vs veh, CACNA2D3 / RFU, DTX4 / Fold change vs veh, DTX4 / RFU, TFCP2 / Fold change vs veh, TFCP2 / RFU, GMCL1 /// GMCL1P1 / Fold change vs veh, GMCL1 /// GMCL1P1 / RFU, AEBP2 / Fold change vs veh, AEBP2 / RFU, SNHG1 /// SNORD22 /// SNORD25 /// SNORD26 /// SNORD27 /// SNORD28 /// SNORD29 /// SNORD31 / Fold change vs veh, SNHG1 /// SNORD22 /// SNORD25 /// SNORD26 /// SNORD27 /// SNORD28 /// SNORD29 /// SNORD31 / Fold change (Aza/veh), C12orf56 (ProbeSet 11735607_a_at) / Fold change (ACY-1035/veh), C12orf56 (ProbeSet 11735607_a_at) / Fold change (Aza/veh), FGFR1OP (ProbeSet 11751329_s_at) / Fold change (ACY-1035/veh), FGFR1OP (ProbeSet 11751329_s_at) / Fold change (Aza/veh), VPS36 (ProbeSet 11739960_a_at) / Fold change (ACY-1035/veh), VPS36 (ProbeSet 11739960_a_at) / RFU SYPL1 (11715823_x_at) / Fold change /veh SYPL1 (11715823_x_at) / RFU IGFBP7 (11715501_s_at) / Fold change /veh IGFBP7 (11715501_s_at) / RFU REEP3 (11722064_at) / Fold change /veh REEP3 (11722064_at) / RFU IGLL1 (11728026_x_at) / Fold change /veh IGLL1 (11728026_x_at): dose or concentration left out as unconfirmed",
  "conditions": "MV-4-11 cells, 48 hours",
  "data": [
    {"smiles": "Nc1ncn([C@@H]2O[C@H](CO)[C@@H](O)[C@H]2O)c(=O)n1", "note": "[azacitidine]", "values": [
      {"measurement": "RFU TPSAB1 /// TPSB2 (11721975_s_at)", "result": 24.54, "unit": "RFU"}
    ]}
  ]
}
